Test results from US20240254119A1 (THIRD HARMONIC BIO, INC., priority 2022, published 2024).

How the values were obtained:
wtKIT = biological target: T1, wtKIT (Homo sapiens, UniProt P10721); experiment: HTRF biochemical assay, wtKIT (phosphorylation of a peptide substrate); settings: Table 4
T1 construct: 1888289AM in the reaction mixtures
Procedure, shortened: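 HTRF read-out of FAM-peptide (1 µM) phosphorylation after anti-phosphotyrosine antibody addition and EDTA quench. Reaction: 5.0 nM wtKIT, 400 µM ATP, 10 mM Mn2+, HEPES pH 7.5, 1% DMSO, 3 h, 25 °C; optional enzyme-compound preincubation; enzyme level set for 10-20% conversion.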

MDR1 (MDR1-MDCKII cells) = biological target: T2, MDR1 (MDR1-MDCKII cells) (Homo sapiens, UniProt P08183); experiment: Permeability in MDR1-MDCKII cells; format: in vitro ADME; settings: for MDCKII-MDR1: Papp A-B: MDCKII-MDR1, apical to basolateral
T2 construct: host or cells: MDCKII (canine kidney) cells
T2 sequence (P08183 whole entry): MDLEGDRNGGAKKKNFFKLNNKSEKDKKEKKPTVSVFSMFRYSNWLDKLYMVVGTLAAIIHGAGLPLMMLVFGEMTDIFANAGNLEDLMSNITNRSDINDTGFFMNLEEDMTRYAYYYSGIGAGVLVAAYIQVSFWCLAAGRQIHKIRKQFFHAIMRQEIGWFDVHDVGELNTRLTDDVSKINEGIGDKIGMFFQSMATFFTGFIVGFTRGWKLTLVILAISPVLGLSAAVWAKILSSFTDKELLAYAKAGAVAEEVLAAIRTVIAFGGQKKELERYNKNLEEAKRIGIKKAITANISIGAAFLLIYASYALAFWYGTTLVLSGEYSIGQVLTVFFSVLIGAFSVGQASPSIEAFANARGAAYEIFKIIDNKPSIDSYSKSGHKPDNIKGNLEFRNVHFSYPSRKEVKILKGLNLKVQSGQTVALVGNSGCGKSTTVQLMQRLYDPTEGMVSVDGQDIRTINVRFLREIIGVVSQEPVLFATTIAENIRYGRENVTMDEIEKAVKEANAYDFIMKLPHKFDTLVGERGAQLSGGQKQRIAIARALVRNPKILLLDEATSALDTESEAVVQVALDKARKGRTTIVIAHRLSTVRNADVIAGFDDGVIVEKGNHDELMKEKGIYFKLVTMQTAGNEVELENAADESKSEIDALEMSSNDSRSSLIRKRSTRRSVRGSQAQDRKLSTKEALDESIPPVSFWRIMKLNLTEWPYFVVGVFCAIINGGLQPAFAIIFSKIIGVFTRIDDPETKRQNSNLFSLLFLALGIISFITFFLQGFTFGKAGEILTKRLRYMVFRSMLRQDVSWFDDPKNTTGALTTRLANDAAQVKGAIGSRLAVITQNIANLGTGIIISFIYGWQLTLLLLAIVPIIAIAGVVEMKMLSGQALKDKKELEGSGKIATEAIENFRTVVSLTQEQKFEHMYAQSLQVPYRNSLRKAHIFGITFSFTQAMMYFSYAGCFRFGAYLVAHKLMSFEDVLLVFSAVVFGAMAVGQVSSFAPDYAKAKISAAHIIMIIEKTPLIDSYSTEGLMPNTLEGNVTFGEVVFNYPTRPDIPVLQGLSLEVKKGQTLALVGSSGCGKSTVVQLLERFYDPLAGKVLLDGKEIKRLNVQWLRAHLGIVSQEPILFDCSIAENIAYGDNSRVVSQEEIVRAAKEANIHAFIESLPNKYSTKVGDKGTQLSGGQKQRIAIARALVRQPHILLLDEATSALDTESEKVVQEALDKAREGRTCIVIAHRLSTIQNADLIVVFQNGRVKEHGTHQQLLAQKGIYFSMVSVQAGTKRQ
Method: Exemplary compounds were tested for cell permeability in Caco-2, MDCKII-MDR1 and MDCKII-BCRP cell lines with efflux transporter engagement inferred from the efflux ratios determined. Procedures and results are described below. […] This feature of certain compounds is in part due to efflux transporter engagement. See, for instance, exemplary such compounds included in data tables below.
MDR1-MDCKII cells (obtained from Piet Borst at the Netherlands Cancer Institute) were seeded onto […] membranes (PET) in 96-well insert systems at 2.5×10^5 cells/mL until to 4-7 days for confluent cell monolayer formation.
Test compounds were diluted with the transport buffer (HBSS with 10 mM Hepes, pH7.4) from DMSO stock solution to a concentration of 2.00 μM (DMSO<1%) and applied to the apical or basolateral side of the cell monolayer. Permeation of the test compounds from A to B direction or B to A direction was determined in duplicate. Digoxin was tested at 10.0 μM from A to B direction or B to A direction as well, while nadolol and metoprolol were tested at […] in A to B direction in duplicate. The plate was incubated for 2.5 hours in CO2 incubator at 37±1° C., with 5% CO2 at saturated humidity without shaking. In addition, the efflux ratio of each compound was also determined. Test and reference compounds were quantified by LC-MS/MS analysis based on the peak area ratio of analyte/IS.
After transport assay, Lucifer yellow rejection assay are applied to determine the cell monolayer integrity. Buffers are removed from both apical and basolateral chambers, followed by the addition of 75 μL of 100 μM lucifer yellow in transport buffer and 250 μL transport buffer in apical and basolateral chambers, respectively. The plate is incubated for 30 minutes at 37° C. with 5% CO2 and saturated humidity without shaking. After 30 minutes incubation, 20 μL of lucifer yellow samples are taken from the apical sides, followed by the addition of 60 μL of Transport Buffer. And then 80 μL of lucifer yellow samples are taken from the basolateral sides. The relative fluorescence unit (RFU) of lucifer yellow is measured at 425/528 nm (excitation/emission) with an Envision plate reader.
The apparent permeability coefficient Papp (cm/s) was calculated using the equation: […]
Where dCr/dt is the cumulative concentration of compound in the receiver chamber as a function of time (μM/s); Vr is the solution volume in the receiver chamber (0.075 mL on the apical side, 0.25 mL on the basolateral side); A is the surface area for the transport, i.e. 0.0804 cm^2 for the area of the monolayer; C0 is the initial concentration in the donor chamber (μM). The efflux ratio was calculated using the equation: […]
Where Vd is the volume in the donor chambers (0.075 mL on the apical side, 0.25 mL on the basolateral side); Cd and Cr are the final concentrations of transport compound in donor and receiver chambers, respectively.

T1 sequence (P10721 26-976): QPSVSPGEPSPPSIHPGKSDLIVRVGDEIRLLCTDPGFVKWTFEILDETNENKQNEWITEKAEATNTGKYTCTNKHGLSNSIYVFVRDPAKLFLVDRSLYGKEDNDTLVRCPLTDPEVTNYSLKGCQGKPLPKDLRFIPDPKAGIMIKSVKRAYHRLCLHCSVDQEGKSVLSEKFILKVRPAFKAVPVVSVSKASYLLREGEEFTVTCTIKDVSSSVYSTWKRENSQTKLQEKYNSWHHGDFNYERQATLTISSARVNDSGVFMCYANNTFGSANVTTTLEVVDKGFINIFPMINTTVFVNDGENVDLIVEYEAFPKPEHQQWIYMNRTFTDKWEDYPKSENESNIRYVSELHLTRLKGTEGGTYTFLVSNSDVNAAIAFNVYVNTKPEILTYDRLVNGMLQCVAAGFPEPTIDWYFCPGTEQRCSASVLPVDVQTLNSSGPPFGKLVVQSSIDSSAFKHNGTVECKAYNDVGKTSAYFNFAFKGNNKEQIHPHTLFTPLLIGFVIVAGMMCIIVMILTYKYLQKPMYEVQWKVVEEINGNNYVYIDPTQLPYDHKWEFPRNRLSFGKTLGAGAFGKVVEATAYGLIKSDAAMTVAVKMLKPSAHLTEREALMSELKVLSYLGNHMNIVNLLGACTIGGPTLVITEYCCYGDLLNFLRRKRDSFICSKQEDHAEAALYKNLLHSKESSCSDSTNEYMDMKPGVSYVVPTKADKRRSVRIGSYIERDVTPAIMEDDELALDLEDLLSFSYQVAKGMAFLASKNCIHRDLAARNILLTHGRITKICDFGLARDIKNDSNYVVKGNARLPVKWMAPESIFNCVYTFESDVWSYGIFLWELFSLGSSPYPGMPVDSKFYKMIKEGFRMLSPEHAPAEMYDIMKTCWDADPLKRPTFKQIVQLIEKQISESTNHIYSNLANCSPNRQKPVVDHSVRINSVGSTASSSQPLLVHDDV

| Compound | IC50 (wtKIT) [nM] | MDCKII-MDR1: Efflux Ratio (MDR1 (MDR1-MDCKII cells)) | MDCKII-MDR1: Papp A-B (MDR1 (MDR1-MDCKII cells)) |
| --- | --- | --- | --- |
| COCCOCc1ccn2c(C(=O)Nc3cc(-c4noc([C@H]5C[C@@H]5F)n4)ccc3C)cnc2c1 [Compound I-84] | ≤ 50 | 1.78 | 12.1 10^−6 cm/s |
| Cc1ccc(-c2noc([C@H]3C[C@@H]3F)n2)cc1NC(=O)c1cnc2ccc(F)cn12 [Compound I-288] | ≤ 50 | 0.51 | 20.6 10^−6 cm/s |
| CCCS(=O)(=O)N1CC(c2nc(-c3ccc(Cl)c(NC(=O)c4cnc5ccccn45)c3)no2)C1 [Compound I-220] | ≤ 50 | 0.71 | 16.3 10^−6 cm/s |
| Cc1ccc(-c2noc([C@H]3C[C@@H]3F)n2)cc1NC(=O)c1cnc2cc(OC(F)(F)F)ccn12 [Compound I-87] | 50 to 500 | 0.74 | 4.58 10^−6 cm/s |
| COC(=O)N1CC(c2nc(-c3ccc(Cl)c(NC(=O)c4cnc5ccccn45)c3)no2)C1 [Compound I-339] | ≤ 50 | 0.84 | 22.8 10^−6 cm/s |
| Cc1ccc(-c2noc([C@H]3C[C@@H]3F)n2)cc1NC(=O)c1cnc2cc(OC(C)C)ccn12 [Compound I-88] | ≤ 50 | 0.86 | 3.92 10^−6 cm/s |
| Cc1ccc(-c2noc([C@H]3CC(F)(F)CN3)n2)cc1NC(=O)c1cnc2ccccn12 [Compound I-359] | 50 to 500 | 0.81 | 21.4 10^−6 cm/s |
| Cc1ccc(-c2noc(CC(O)C(F)F)n2)cc1NC(=O)c1cnc2ccccn12 (stereo not drawn) [Compound I-114] | ≤ 50 | 3.67 | 7.8 10^−6 cm/s |
| Cc1ccc(-c2noc(C(C)NS(C)(=O)=O)n2)cc1NC(=O)c1cnc2ccccn12 (single isomer, unassigned) [Compound I-237] | 50 to 500 | 20.5 | 1.43 10^−6 cm/s |
| Cc1ccc(-c2noc(CCO)n2)cc1NC(=O)c1cnc2ccccn12 [Compound I-306] | 50 to 500 | 2.88 | 14.5 10^−6 cm/s |
| Cc1ccc(-c2noc(CC(C)(C)O)n2)cc1NC(=O)c1cnc2ccccn12 [Compound I-336] | 50 to 500 | 1.85 | 15.4 10^−6 cm/s |
| COC(=O)N1CC(c2nc(-c3ccc(C(F)F)c(NC(=O)c4cnc5ccccn45)c3)no2)C1 [Compound I-225] | ≤ 50 | 1.1 | 15.9 10^−6 cm/s |
| Cc1ccc(-c2noc(C3CC(OCCF)C3)n2)cc1NC(=O)c1cnc2ccccn12 (stereo not drawn) [Compound I-369] | ≤ 50 | 0.87 | 24.4 10^−6 cm/s |
